Laboratory results: US4473554A, “Bestatin-related compounds as immunopotentiator” (Zaidan Hojin Biseibutsu Kagaku Kenkyu Kai, priority 1982, dated 1984)
Like-named read-outs stand apart in the source and are kept apart here. One block for each molecule: values may come before it.

Legend:
[1] = test system: D.T.H. response in mice immunized with SRBC as antigen; assay: D.T.H. footpad test in mice immunized with SRBC, Examples 3-6 (dosages per mouse); type: in vivo; settings: for enhancement of D.T.H. response / cell-mediated immunity: oral, 10 mcg/mouse or 1 mcg/mouse
Experimental: The effect of (2S,3R)-AHPA on cell-mediated immunity was tested in the same way in Example 2, namely according to the D.T.H. technique using mice immunized with sheep red blood cell as antigen. Thus, a suspension of 10^8 sheep red blood cells in 0.05 ml of physiological saline were subcutaneously injected at the time of immunization into the right hind footpad of each CDF1 -mouse under test (female, 8 weeks-aged, 5 mice in each group) to establish D.T.H. […] The degree of swelling was evaluated. By way of comparison, bestatin was tested in the same way as above. […] The effect of (2S,3R)-AHPA on the D.T.H. response was estimated in the same manner as in the above procedure (A) of Example 3 by orally administering 1 mcg/mouse, 0.1 mcg/mouse or 0.01 mcg/mouse of (2S,3R)-AHPA to each mouse under test. […] The effect of the mode of administering (2S,3R)-AHPA on the D.T.H. response was estimated in the same manner as in the procedure (A) of Example 3, except that the test compound (as aqueous solution) was injected intraperitoneally in stead of being given orally.

ICR-strain mice = assay: acute toxicity, intraperitoneal, ICR-strain mice; type: in vivo, mouse; settings: dosage of 100 mg/kg
Excerpt: In order to estimate the acute toxicity of the compound of the formula (VIII) or (IIId), some of the test compound was intraperitoneally given to ICR-strain mice (in groups each consisting of 6 mice, male, 5 weeks-aged, average body weight 20 g.), when all the tested mice tolerated intraperitoneal administration of (2S,3R)-APHA; (2S)-2-N-[(2'S,3'R)-3'-amino-2'-hydroxy-4'-phenyl-butanoyl]amino-4-methyl- pentanol; (2S)-2-N-[(2'S,3'R)-3'-amino-2'-hydroxy-4'-phenylbutanoyl-(S)-leucyl]amino-4-methyl-pentanol; (2S,3R)-3-amino-2-hydroxy-4-phenylbutanoyl-(S)-leucyl-(S)-leucine; (2S,3R)-3-amino-2-hydroxy-4-phenyl-butanoyl-(S)-leucyl-(S)-arginine; (2S,3R)-3-amino-2-hydroxy-4-phenylbutanoyl-(S)-leucyl-(S)-asparagine; (2R,3R)-3-amino-2-hydroxy-4-phenylbutanoyl-(S)-leucyl-(R)-asparagine; and (2S,3R)-3-amino-2-hydroxy-4-phenylbutanoyl-(S)-leucyl-(R)-arginine at a dosage of 100 mg/kg.

aminopeptidase B = target: T1, aminopeptidase B (Rattus norvegicus, UniProt O09175); assay: aminopeptidase B-inhibiting activity (modified Hopsu method, arginine β-naphthylamide substrate); type: biochemical; settings: 37° C., pH 7.0, 30 minutes
T1 sequence (O09175 1-650): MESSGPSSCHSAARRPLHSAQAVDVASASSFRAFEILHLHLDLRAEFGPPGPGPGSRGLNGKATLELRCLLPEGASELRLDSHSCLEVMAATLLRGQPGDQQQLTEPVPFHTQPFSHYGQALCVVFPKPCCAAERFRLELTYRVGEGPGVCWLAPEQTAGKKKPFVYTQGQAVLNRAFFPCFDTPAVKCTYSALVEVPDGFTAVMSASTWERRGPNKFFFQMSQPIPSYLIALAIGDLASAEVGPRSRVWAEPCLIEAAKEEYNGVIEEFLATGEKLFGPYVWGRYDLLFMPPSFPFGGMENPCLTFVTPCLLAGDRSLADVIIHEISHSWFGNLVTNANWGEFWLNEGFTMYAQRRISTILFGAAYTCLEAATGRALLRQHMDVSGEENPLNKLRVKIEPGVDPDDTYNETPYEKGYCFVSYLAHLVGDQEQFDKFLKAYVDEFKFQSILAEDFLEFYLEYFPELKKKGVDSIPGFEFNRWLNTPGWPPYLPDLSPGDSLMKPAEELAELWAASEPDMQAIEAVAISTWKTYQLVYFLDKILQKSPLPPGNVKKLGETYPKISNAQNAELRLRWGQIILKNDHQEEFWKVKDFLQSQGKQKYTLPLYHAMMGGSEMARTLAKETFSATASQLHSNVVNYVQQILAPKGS
Experimental: The aminopeptidase B-inhibiting activity was determined according to a modification of the method of V. K. Hopsu et al. described in the "Archives of Biochemistry and Biophysics" Vol. 114, 557 (1966). Thus, a mixture of 0.8 ml of 0.1 mM of (S)-arginine β-naphthylamide and 1.0 ml of 0.1M Tris-hydrochloride buffer (pH 7.0) was admixed with 0.7 ml of 0.1M Tris-hydrochloride buffer (pH 7.0) containing the test compound and then heated at 37° C. for 3 minutes. […] After the reaction at 37° C. for 30 minutes, the reaction solution was admixed with 0.6 ml of 0.1M acetate buffer (pH 4.2) containing 1.0 mg/ml of diazonium salt of o-aminoazotoluene (Garnet GBC) and 1.0% of a surfactant "Tween" 20 (a registered trademark) to stop the enzymatic reaction and then allowed to stand at ambient temperature for 15 minutes. After this, absorbance (a) at 525 nm of the reaction solution was measured by spectrophotometer. For the control, the above procedure was repeated without the test compound and the adsorbence (b) was measured. Percentages for inhibition to aminopeptidase B were calculated according to the equation: [formula] Inhibition percentages at various concentrations of the test compound were measured, and from the values of inhibition percentages measured 50% Inhibition Concentration (IC50) was evaluated.

[2] = test system: D.T.H. response in mice immunized with sheep red blood cell (SRBC); assay: Delayed Type Hypersensitivity (D.T.H.) footpad test in mice immunized with SRBC, Example 2; type: in vivo, mouse; settings: CDF1 mice, control = 100
Experimental: This Example describes the tests for evaluation of the immunopotentiating activity of the new compound of this invention.
A suspension of 10^8 sheep red blood cells in 0.05 ml of physiological saline was subcutaneously injected at the time of immunization into the right hind footpad of each CDF1 -mouse under test (female, 8 weeks-aged, 5 mice in each group) to establish D.T.H. Simultaneously to the immunization, […] prepared by dissolving the test compound in physiological saline and then filtering the solution by a micropore filter (pore diameter: 0.22 micrometers). Four days later, 10^8 SRBC were subcutaneously injected into the left […] footpad of each test mouse for elicitation of the D.T.H. response. 24 Hours after the elicitating injection, the increased thickness of the left hind footpad was measured with calipers to estimate the degree of swelling in the footpad. The swelling degree is expressed in term of the values calculated by the equation: [formula] The degree of swelling serves to evaluate the degree of cell-mediated immunity involved. For comparison, a suspension of bestatin dispersed in water was tested in the same way as above.

[3] = oral 0.05 mg/kg at immunization
[4] = Table 7, oral 1 mcg/mouse, control = 100
[5] = Table 7, oral 10 mcg/mouse, control = 100

- solubility in water (solubility in water): soluble in water
Structure (SMILES): N[C@H](Cc1ccc(O)cc1)[C@H](O)C(=O)O [(2S,3R)-p-OH-AHPA, (2S,3R)-3-amino-2-hydroxy-4-p-hydroxyphenylbutanoic acid]
- Increase in thickness of footpad (+ S.D.) ([1]; Table 8, oral 1 mcg/mouse): 9.7 ± 0.54 × 0.1 mm
- Degree of swelling ([1]; Table 8, oral 1 mcg/mouse, control = 100): 114%
- Increase in thickness of footpad (+ S.D.) ([1]; Table 8, oral 10 mcg/mouse): 11.0 ± 1.75 × 0.1 mm
- Degree of swelling ([1]; Table 8, oral 10 mcg/mouse, control = 100): 129%
- enhancement of D.T.H. response / cell-mediated immunity [1]: enhances likewise the cell-mediatedimmunity

- solubility in water (solubility in water): soluble in water
Structure (SMILES): N[C@H](Cc1ccccc1)[C@@H](O)C(=O)O [(2R,3R)-AHPA]
- Degree of swelling ([1]; Table 6, oral 1 mcg/mouse): 135%
- Increased in thickness of footpad (± S.D.) ([1]; Table 6, oral 1 mcg/mouse): 11.9 ± 0.74 × 0.1 mm
- Increased in thickness of footpad (± S.D.) ([1]; Table 6, oral 10 mcg/mouse): 9.6 ± 0.65 × 0.1 mm

- solubility in water (solubility in water): soluble in water
Structure (SMILES): NC(=O)[C@H](O)[C@H](N)Cc1ccccc1 [(2R,3R)-AHPA amide]

Structure (SMILES): CC(C)C[C@H](NC(=O)[C@H](CC(C)C)NC(=O)[C@@H](O)[C@H](N)Cc1ccccc1)C(=O)O
- acute toxicity: tolerance of intraperitoneal administration (ICR-strain mice): tolerated

- IC50 (aminopeptidase B): 48.9 µg/mL
- solubility in water (solubility in water): soluble in water
Structure (SMILES): CC(=O)N[C@H](Cc1ccccc1)[C@H](O)C(=O)N[C@H](CO)CC(C)C [Compound No. 3, (2S)-2-N-[(2'S,3'R)-3'-N-acetylamino-2'-hydroxy-4'-phenylbutanoyl]amino-4-methyl-pentanol]
- Degree of swelling [2, 3]: 124%
- Degree of swelling ([2]; oral 0.5 mg/kg at immunization): 131%

Structure (SMILES): N[C@@H](Cc1ccccc1)[C@@H](O)C(=O)O [(2R,3S)-AHPA]
- Degree of swelling ([1]; Table 6, oral 1 mcg/mouse): 133%
- Increased in thickness of footpad (± S.D.) ([1]; Table 6, oral 1 mcg/mouse): 11.7 ± 1.15 × 0.1 mm
- Degree of swelling ([1]; Table 6, oral 10 mcg/mouse): 120%
- Increased in thickness of footpad (± S.D.) ([1]; Table 6, oral 10 mcg/mouse): 10.6 ± 0.97 × 0.1 mm

- IC50 (aminopeptidase B): 5.4 µg/mL
Structure (SMILES): CC(C)C[C@@H](CO)NC(=O)[C@H](CC(C)C)NC(=O)C(O)[C@H](N)Cc1ccccc1 (stereo partly drawn) [Compound No. 4, (2S)-2-N-[(2'S,3'R)-3'-amino-2'-hydroxy-4'-phenylbutanoyl-(S)-leucyl]amino-4-methyl-pentanol]
- Degree of swelling ([2]; oral 0.5 mg/kg at immunization): 103%

- IC50 (aminopeptidase B): 15 µg/mL
Structure (SMILES): CC(C)C[C@H](NC(=O)[C@@H](O)[C@H](N)Cc1ccccc1)C(=O)N[C@H](CC(C)C)C(=O)O [Compound No. 7, (2S,3R)-3-amino-2-hydroxy-4-phenylbutanoyl-(S)-leucyl-(R)-leucine]
- Degree of swelling ([2]; oral 0.5 mg/kg at immunization): 120%

Structure (SMILES): CC(C)C[C@@H](CO)NC(=O)[C@@H](O)[C@H](N)Cc1ccccc1 [Compound No. 2, (2S)-2-N-[(2'S,3'R)-3'-amino-2'-hydroxy-4'-phenylbutanoyl]amino-4-methyl-pentanol]
- acute toxicity: tolerance of intraperitoneal administration (ICR-strain mice): tolerated
- IC50 (aminopeptidase B): 0.65 µg/mL
- Degree of swelling [2, 3]: 106%
- Degree of swelling ([2]; oral 0.5 mg/kg at immunization): 126%

- IC50 (aminopeptidase B): 53 µg/mL
Structure (SMILES): CC(C)C[C@H](NC(=O)C(O)[C@H](N)Cc1ccccc1)C(=O)N[C@H](Cc1ccccc1)[C@H](O)C(=O)O (stereo partly drawn) [Compound No. 8, (3R)-N-[(2'S,3'R)-3'-amino-2'-hydroxy-4'-phenylbutanoyl-(S)-leucyl]amino-(2S)-2-hydroxy-4-phenylbutanoic acid]

Structure (SMILES): CC(C)C[C@@H](CO)NC(=O)[C@H](CC(C)C)NC(=O)[C@@H](O)[C@H](N)Cc1ccccc1
- acute toxicity: tolerance of intraperitoneal administration (ICR-strain mice): tolerated

Structure (SMILES): CC(C)C[C@H](NC(=O)[C@@H](O)[C@H](N)Cc1ccccc1)C(=O)N[C@@H](CC(N)=O)C(=O)O
- acute toxicity: tolerance of intraperitoneal administration (ICR-strain mice): tolerated

Structure (SMILES): NC(=O)[C@@H](O)[C@H](N)Cc1ccccc1 [(2S,3R)-AHPA amide]
- Increase in thickness of footpad (± S.D.) ([1]; Table 7, oral 1 mcg/mouse): 9.8 ± 0.82 × 0.1 mm
- Degree of swelling [1, 4]: 111%
- Increase in thickness of footpad (± S.D.) ([1]; Table 7, oral 10 mcg/mouse): 11.5 ± 1.20 × 0.1 mm
- Degree of swelling [1, 5]: 131%

Structure (SMILES): CC(C)C[C@H](NC(=O)[C@@H](O)[C@H](N)Cc1ccccc1)C(=O)N[C@@H](CCCNC(=N)N)C(=O)O
- acute toxicity: tolerance of intraperitoneal administration (ICR-strain mice): tolerated

Structure (SMILES): COC(=O)[C@@H](O)[C@H](N)Cc1ccccc1.Cl [(2S,3R)-AHPA methylester hydrochloride]
- Increase in thickness of footpad (± S.D.) ([1]; Table 7, oral 1 mcg/mouse): 11.7 ± 1.29 × 0.1 mm
- Degree of swelling [1, 4]: 134%
- Increase in thickness of footpad (± S.D.) ([1]; Table 7, oral 10 mcg/mouse): 11.5 ± 1.12 × 0.1 mm
- Degree of swelling [1, 5]: 132%
- enhancement of D.T.H. response / cell-mediated immunity [1]: active substantially as much as the free acid form of (2S,3R)-AHPA

Structure (SMILES): N[C@@H](Cc1ccccc1)[C@H](O)C(=O)O [(2S,3S)-AHPA]
- Degree of swelling ([1]; Table 6, oral 1 mcg/mouse): 111%
- Degree of swelling ([1]; Table 6, oral 10 mcg/mouse): 135%
- Increased in thickness of footpad (± S.D.) ([1]; Table 6, oral 10 mcg/mouse): 11.9 ± 1.36 × 0.1 mm

Structure (SMILES): Cl.N[C@H](Cc1ccccc1)[C@H](O)CO [Compound No. 1, (2S,3R)-3-amino-2-hydroxy-4-phenyl-1-butanol-hydrochloride]
- IC50 (aminopeptidase B; read-out: IC50): > 230 µM
- solubility in water (solubility in water): soluble in water
- Degree of swelling [2, 3]: 123%
- Degree of swelling ([2]; oral 0.5 mg/kg at immunization): 129%
